Assay results published in publication PMC5218480 (PLoS ONE, 2017).

Tested on: MV-4-11 cells
Assay: Gene expression microarray analysis (Affymetrix PrimeView) and GSEA
Type: cell-based, human
Design: RFU PODN (11730768_x_at) / Fold change /veh PODN (11730768_x_at) / RFU LINC00158 (11744669_a_at) / Fold change /veh LINC00158 (11744669_a_at) / RFU DUSP10 (11751237_a_at) / Fold change /veh DUSP10 (11751237_a_at) / RFU ID3 (11757404_x_at) / Fold change /veh ID3 (11757404_x_at) / RFU PLEKHG5 (11737974_s_at) / Fold change /veh PLEKHG5 (11737974_s_at) / RFU LRRC4B (11730491_at) / Fold change /veh LRRC4B (11730491_at) / RFU GIMAP4 (11747438_a_at) / Fold change /veh GIMAP4 (11747438_a_at) / RFU KRT8 (11758183_x_at) / Fold change /veh KRT8 (11758183_x_at) / RFU CNN1 (11734310_a_at) / Fold change /veh CNN1 (11734310_a_at) / RFU VPS37D (11726825_at) / Fold change /veh VPS37D (11726825_at) / RFU C10orf10 (11716522_x_at) / Fold change /veh C10orf10 (11716522_x_at) / RFU KIR2DL2 /// KIR2DL4 /// KIR2DL5A /// KIR2DL5B /// KIR2DS1 /// KIR2DS2 /// KIR2DS3 /// KIR2DS4 /// KIR3DL3 /// KIR3DL3 /// KIR3DS1 (11738374_at) / Fold change /veh KIR2DL2 /// KIR2DL4 /// KIR2DL5A /// KIR2DL5B /// KIR2DS1 /// KIR2DS2 /// KIR2DS3 /// KIR2DS4 /// KIR3DL3 /// KIR3DL3 /// KIR3DS1 (11738374_at) / RFU C1QL1 (11718748_at) / Fold change /veh C1QL1 (11718748_at) / RFU TMPRSS4 (11747572_a_at) / Fold change /veh TMPRSS4 (11747572_a_at) / RFU HAMP (11756126_x_at) / Fold change /veh HAMP (11756126_x_at) / RFU RNFT2 (11725882_a_at) / Fold change /veh RNFT2 (11725882_a_at) / RFU NR4A2 (11747474_a_at) / Fold change /veh NR4A2 (11747474_a_at) / RFU ABCC12 (11746883_a_at) / Fold change /veh ABCC12 (11746883_a_at) / RFU TMEM136 (11760407_x_at) / Fold change /veh TMEM136 (11760407_x_at) / RFU CLDN22 /// WWC2 (11732394_at) / Fold change /veh CLDN22 /// WWC2 (11732394_at) / RFU HLA-DPB1 (11760878_x_at) / Fold change /veh HLA-DPB1 (11760878_x_at) / RFU SPINT1 (11716480_a_at) / Fold change /veh SPINT1 (11716480_a_at) / RFU GAP43 (11754022_s_at) / Fold change /veh GAP43 (11754022_s_at) / RFU A4GNT (11735810_at) / Fold change /veh A4GNT (11735810_at) / RFU PRB3 (11715151_x_at) / Fold change /veh PRB3 (11715151_x_at) / RFU TUBB4B (11761932_at) / Fold change /veh TUBB4B (11761932_at) / RFU CAPN14 (11732068_a_at) / Fold change /veh CAPN14 (11732068_a_at) / RFU TMCC2 (11721928_a_at) / Fold change /veh TMCC2 (11721928_a_at) / RFU IRGQ (11745062_a_at) / Fold change /veh IRGQ (11745062_a_at) / RFU FAM174B (11720279_a_at) / Fold change /veh FAM174B (11720279_a_at) / RFU TMPRSS4 (11748680_a_at) / Fold change /veh TMPRSS4 (11748680_a_at) / RFU FAM212B (11763350_a_at) / Fold change /veh FAM212B (11763350_a_at) / RFU PLEKHG5 (11743358_a_at) / Fold change /veh PLEKHG5 (11743358_a_at) / RFU ZSCAN30 (11745921_a_at) / Fold change /veh ZSCAN30 (11745921_a_at) / RFU CMKLR1 (11741424_a_at) / Fold change /veh CMKLR1 (11741424_a_at) / RFU LOC101060620 /// MAPK8IP1 (11723275_at) / Fold change /veh LOC101060620 /// MAPK8IP1 (11723275_at) / RFU SPTSSB (11747773_x_at) / Fold change /veh SPTSSB (11747773_x_at) / RFU PRSS12 (11739890_at) / Fold change /veh PRSS12 (11739890_at) / RFU BIN1 (11741810_x_at) / Fold change /veh BIN1 (11741810_x_at) / RFU WNT11 (11732464_a_at) / Fold change /veh WNT11 (11732464_a_at) / RFU C10orf10 (11716521_a_at) / Fold change /veh C10orf10 (11716521_a_at) / RFU C5orf56 (11738089_at) / Fold change /veh C5orf56 (11738089_at) / RFU CYB561 (11721691_x_at) / Fold change /veh CYB561 (11721691_x_at) / RFU ANKRD19P (11752326_a_at) / Fold change /veh ANKRD19P (11752326_a_at) / RFU OR2T12 /// OR2T33 /// OR2T8 (11738714_s_at) / Fold change /veh OR2T12 /// OR2T33 /// OR2T8 (11738714_s_at) / RFU VCAN (11748164_a_at) / Fold change /veh VCAN (11748164_a_at) / RFU JSRP1 (11732532_at) / Fold change /veh JSRP1 (11732532_at) / RFU KRTAP10-11 (11738290_x_at) / Fold change /veh KRTAP10-11 (11738290_x_at) / RFU MYO3A (11730013_a_at) / Fold change /veh MYO3A (11730013_a_at) / RFU EBF3 (11725865_a_at) / Fold change /veh EBF3 (11725865_a_at) / RFU CAMK2N1 (11719241_x_at) / Fold change /veh CAMK2N1 (11719241_x_at) / RFU C5orf56 (11738088_a_at) / Fold change /veh C5orf56 (11738088_a_at) / RFU OLFML3 (11715873_a_at) / Fold change /veh OLFML3 (11715873_a_at) / RFU LOC100653217 /// NTM (11731650_a_at) / Fold change /veh LOC100653217 /// NTM (11731650_a_at) / RFU MAPK11 (11762145_a_at) / Fold change /veh MAPK11 (11762145_a_at) / RFU FIZ1 (11724087_x_at) / Fold change /veh FIZ1 (11724087_x_at) / RFU OASL (11726364_x_at) / Fold change /veh OASL (11726364_x_at) / RFU SOX15 (11748057_x_at) / Fold change /veh SOX15 (11748057_x_at) / RFU CD79A (11719716_a_at) / Fold change /veh CD79A (11719716_a_at) / RFU HIST1H1D (11736915_at) / Fold change /veh HIST1H1D (11736915_at) / RFU CASKIN2 (11723855_a_at) / Fold change /veh CASKIN2 (11723855_a_at) / RFU LOC730098 (11760151_x_at) / Fold change /veh LOC730098 (11760151_x_at) / RFU OR4N2 (11742367_at) / Fold change /veh OR4N2 (11742367_at) / RFU PRRT2 (11749266_a_at) / Fold change /veh PRRT2 (11749266_a_at) / RFU SNX32 (11753110_a_at) / Fold change /veh SNX32 (11753110_a_at) / RFU CDHR5 (11726645_a_at) / Fold change /veh CDHR5 (11726645_a_at) / RFU RCAN1 (11760418_a_at) / Fold change /veh RCAN1 (11760418_a_at) / RFU FAM167A (11723789_a_at) / Fold change /veh FAM167A (11723789_a_at) / RFU FAM26E (11764081_at) / Fold change /veh FAM26E (11764081_at) / RFU ISYNA1 (11749810_s_at) / Fold change /veh ISYNA1 (11749810_s_at) / RFU ACY1 (11761880_at) / Fold change /veh ACY1 (11761880_at) / RFU 11764098_at / Fold change /veh 11764098_at / RFU SAMD14 (11745864_x_at) / Fold change /veh SAMD14 (11745864_x_at) / RFU NPB (11741838_a_at) / Fold change /veh NPB (11741838_a_at) / RFU TMPRSS6 (11731388_a_at) / Fold change /veh TMPRSS6 (11731388_a_at) / RFU KRTAP10-2 (11738614_at) / Fold change /veh KRTAP10-2 (11738614_at) / RFU ARHGAP8 /// PRR5-ARHGAP8 (11727945_x_at) / Fold change /veh ARHGAP8 /// PRR5-ARHGAP8 (11727945_x_at) / RFU KRTAP5-7 /// NADSYN1 (11734609_at) / Fold change /veh KRTAP5-7 /// NADSYN1 (11734609_at) / RFU RASL12 (11751679_a_at) / Fold change /veh RASL12 (11751679_a_at) / RFU CDKN2B (11736163_a_at) / Fold change /veh CDKN2B (11736163_a_at) / RFU PRF1 (11729649_at) / Fold change /veh PRF1 (11729649_at) / RFU, ZNF638 /// ZNF638-IT1 / Fold change vs veh, ZNF638 /// ZNF638-IT1 / RFU, PANK3 / Fold change vs veh, PANK3 / RFU, SH3YL1 / Fold change vs veh, SH3YL1 / RFU, ZEB2 / Fold change vs veh, ZEB2 / RFU, NRIP1 / Fold change vs veh, NRIP1 / RFU, PTTG1IP / Fold change vs veh, PTTG1IP / RFU, CAPN2 / Fold change vs veh, CAPN2 / RFU, MED14 / Fold change vs veh, MED14 / RFU, SNORA58 / Fold change vs veh, SNORA58 / RFU, C1orf63 / Fold change vs veh, C1orf63 / RFU, LRRFIP1 / Fold change vs veh, LRRFIP1 / RFU, NDUFAF7 / Fold change vs veh, NDUFAF7 / RFU, SLC12A2 / Fold change vs veh, SLC12A2 / RFU, IBTK / Fold change vs veh, IBTK / RFU, ESF1 / Fold change vs veh, ESF1 / Fold change vs veh, TMEM50B / RFU, TAOK1 / Fold change vs veh, TAOK1 / RFU, ACBD3 / Fold change vs veh, ACBD3 / RFU, TMA16 / Fold change vs veh, TMA16 / RFU, RWDD3 / Fold change vs veh, RWDD3 / RFU, BCAT1 / Fold change vs veh, BCAT1 / RFU, EDEM3 / Fold change vs veh, EDEM3 / RFU, TMEM33 / Fold change vs veh, TMEM33 / RFU, WDR75 / Fold change vs veh, WDR75 / RFU, AHCTF1 / Fold change vs veh, AHCTF1 / RFU, TFRC / Fold change vs veh, TFRC / RFU, ZDHHC17 / Fold change vs veh, ZDHHC17 / RFU, NOM1 / Fold change vs veh, NOM1 / RFU, ARL8B / Fold change vs veh, ARL8B / RFU, ZBTB11 / Fold change vs veh, ZBTB11 / RFU, TAMM41 / Fold change vs veh, TAMM41 / RFU, KIAA1704 /// LOC100996395 / Fold change vs veh, KIAA1704 /// LOC100996395 / RFU, ING1 / Fold change vs veh, ING1 / RFU, TRMT61B / Fold change vs veh, TRMT61B / RFU, FUBP3 / Fold change vs veh, FUBP3 / RFU, TP53 / Fold change vs veh, TP53 / RFU, TNKS2 / Fold change vs veh, TNKS2 / RFU, ZFP14 / Fold change vs veh, ZFP14 / RFU, ACTR2 / Fold change vs veh, ACTR2 / RFU, PPP3R1 / Fold change vs veh, PPP3R1 / RFU, PIK3R1 / Fold change vs veh, PIK3R1 / RFU, HNRNPA1 / Fold change vs veh, HNRNPA1 / RFU, RNF170 / Fold change vs veh, RNF170 / RFU, ZNF28 / Fold change vs veh, ZNF28 / RFU, RNGTT / Fold change vs veh, RNGTT / RFU, OGT / Fold change vs veh, OGT / RFU, BRD1 / Fold change vs veh, BRD1 / RFU, MARS / Fold change vs veh, MARS / RFU, ZNF655 / Fold change vs veh, ZNF655 / RFU, FAHD1 / Fold change vs veh, FAHD1 / RFU, BDP1 / Fold change vs veh, BDP1 / RFU, LRRCC1 / Fold change vs veh, LRRCC1 / RFU, ARID1A / Fold change vs veh, ARID1A / RFU, ZNF146 / Fold change vs veh, ZNF146 / RFU, ZNF330 / Fold change vs veh, ZNF330 / RFU, GPN3 / Fold change vs veh, GPN3 / RFU, C9orf123 / Fold change vs veh, C9orf123 / RFU, N4BP2L2 / Fold change vs veh, N4BP2L2 / RFU, ARFIP1 / Fold change vs veh, ARFIP1 / RFU, FAM179B / Fold change vs veh, FAM179B / RFU, BCL10 / Fold change vs veh, BCL10 / RFU, UHRF1BP1L / Fold change vs veh, UHRF1BP1L / RFU, BET1 / Fold change vs veh, BET1 / RFU, CNOT2 / Fold change vs veh, CNOT2 / RFU, ZNF268 / Fold change vs veh, ZNF268 / Fold change vs veh, ZNF507 / RFU, DGCR2 / Fold change vs veh, DGCR2 / RFU, WDSUB1 / Fold change vs veh, WDSUB1 / Fold change vs veh, HSP90B1 /// MIR3652 / RFU, ADSS / Fold change vs veh, ADSS / RFU, GK / Fold change vs veh, GK / RFU, ZNF148 / Fold change vs veh, ZNF148 / RFU, TAF9 / Fold change vs veh, TAF9 / RFU, SLC1A5 / Fold change vs veh, SLC1A5 / RFU, SLMO2 / Fold change vs veh, SLMO2 / RFU, ABCC4 / Fold change vs veh, ABCC4 / RFU, LOC101060439 /// RAP1B / Fold change vs veh, LOC101060439 /// RAP1B / RFU, RFX7 / Fold change vs veh, RFX7 / RFU, GTPBP10 / Fold change vs veh, GTPBP10 / RFU, CNEP1R1 / Fold change vs veh, CNEP1R1 / RFU, BIVM-ERCC5 /// ERCC5 / Fold change vs veh, BIVM-ERCC5 /// ERCC5 / RFU, ILF3 / Fold change vs veh, ILF3 / RFU 11762660_at / Fold change /veh 11762660_at / RFU VCAN (11757783_s_at) / Fold change /veh VCAN (11757783_s_at) / RFU DDX43 (11728927_at) / Fold change /veh DDX43 (11728927_at) / RFU KRT8 (11758188_x_at) / Fold change /veh KRT8 (11758188_x_at) / RFU NKD1 (11759106_at) / Fold change /veh NKD1 (11759106_at) / RFU SRD5A1 (11742802_a_at) / Fold change /veh SRD5A1 (11742802_a_at) / RFU TPSAB1 /// TPSB2 (11721975_s_at) / Fold change /veh TPSAB1 /// TPSB2 (11721975_s_at) / RFU GSTM3 (11746129_a_at) / Fold change /veh GSTM3 (11746129_a_at) / RFU IL23R (11737362_x_at) / Fold change /veh IL23R (11737362_x_at) / RFU TMEM51 (11727254_a_at) / Fold change /veh TMEM51 (11727254_a_at) / RFU PIWIL2 (11732686_x_at) / Fold change /veh PIWIL2 (11732686_x_at) / RFU ORM1 (11744905_x_at) / Fold change /veh ORM1 (11744905_x_at) / RFU CCDC152 (11743942_at) / Fold change /veh CCDC152 (11743942_at) / RFU ECM1 (11717891_a_at) / Fold change /veh ECM1 (11717891_a_at) / RFU IL23R (11748794_a_at) / Fold change /veh IL23R (11748794_a_at) / RFU TNFAIP8L3 (11732012_x_at) / Fold change /veh TNFAIP8L3 (11732012_x_at) / RFU MBOAT4 (11741988_at) / Fold change /veh MBOAT4 (11741988_at) / RFU 11764193_at / Fold change /veh 11764193_at / RFU TMEM53 (11763286_at) / Fold change /veh TMEM53 (11763286_at) / RFU MAGEB2 (11727129_at) / Fold change /veh MAGEB2 (11727129_at) / RFU TMEM200A (11744735_a_at) / Fold change /veh TMEM200A (11744735_a_at) / RFU CCDC152 (11751479_a_at) / Fold change /veh CCDC152 (11751479_a_at) / RFU FAM211A (11726209_a_at) / Fold change /veh FAM211A (11726209_a_at) / RFU RGS16 (11746705_a_at) / Fold change /veh RGS16 (11746705_a_at) / RFU VCAN (11755009_s_at) / Fold change /veh VCAN (11755009_s_at) / RFU RHOB (11743442_s_at) / Fold change /veh RHOB (11743442_s_at) / RFU RGS16 (11720943_a_at) / Fold change /veh RGS16 (11720943_a_at) / RFU RGS16 (11720944_at) / Fold change /veh RGS16 (11720944_at) / RFU, VPS4B / Fold change vs veh, VPS4B / RFU, CREB1 / Fold change vs veh, CREB1 / RFU, DNAJC13 / Fold change vs veh, DNAJC13 / RFU, GNAQ / Fold change vs veh, GNAQ / RFU, CDK5R1 / Fold change vs veh, CDK5R1 / RFU, ZRANB3 / Fold change vs veh, ZRANB3 / RFU, CUL4A / Fold change vs veh, CUL4A / RFU, CCNY / Fold change vs veh, CCNY / RFU, UFL1 / Fold change vs veh, UFL1 / RFU, COG3 / Fold change vs veh, COG3 / RFU, DIAPH2 / Fold change vs veh, DIAPH2 / RFU, SKA2 / Fold change vs veh, SKA2 / RFU, AFF3 / Fold change vs veh, AFF3 / RFU, LMF1 / Fold change vs veh, LMF1 / RFU, IPO11 / Fold change vs veh, IPO11 / RFU, DFFB / Fold change vs veh, DFFB / RFU, FOXP1 / Fold change vs veh, FOXP1 / RFU, CARD8 / Fold change vs veh, CARD8 / RFU, STRN3 / Fold change vs veh, STRN3 / RFU, ADK / Fold change vs veh, ADK / RFU, RASSF2 / Fold change vs veh, RASSF2 / RFU, WIPF1 / Fold change vs veh, WIPF1 / RFU, LARP1B / Fold change vs veh, LARP1B / RFU, RASA1 / Fold change vs veh, RASA1 / RFU, RB1 / Fold change vs veh, RB1 / RFU, PPFIA1 / Fold change vs veh, PPFIA1 / RFU, MAT2A / Fold change vs veh, MAT2A / RFU, CCT5 / Fold change vs veh, CCT5 / RFU, WDR92 / Fold change vs veh, WDR92 / RFU, CUX1 / Fold change vs veh, CUX1 / RFU, TTC7A / Fold change vs veh, TTC7A / RFU, TMEM135 / Fold change vs veh, TMEM135 / RFU, DEPTOR / Fold change vs veh, DEPTOR / RFU, CPM / Fold change vs veh, CPM / RFU, DNAJB6 / Fold change vs veh, DNAJB6 / RFU, CACNA2D3 / Fold change vs veh, CACNA2D3 / RFU, DTX4 / Fold change vs veh, DTX4 / RFU, TFCP2 / Fold change vs veh, TFCP2 / RFU, GMCL1 /// GMCL1P1 / Fold change vs veh, GMCL1 /// GMCL1P1 / RFU, AEBP2 / Fold change vs veh, AEBP2 / RFU, SNHG1 /// SNORD22 /// SNORD25 /// SNORD26 /// SNORD27 /// SNORD28 /// SNORD29 /// SNORD31 / Fold change vs veh, SNHG1 /// SNORD22 /// SNORD25 /// SNORD26 /// SNORD27 /// SNORD28 /// SNORD29 /// SNORD31 / Fold change (Aza/veh), C12orf56 (ProbeSet 11735607_a_at) / Fold change (ACY-1035/veh), C12orf56 (ProbeSet 11735607_a_at) / Fold change (Aza/veh), FGFR1OP (ProbeSet 11751329_s_at) / Fold change (ACY-1035/veh), FGFR1OP (ProbeSet 11751329_s_at) / Fold change (Aza/veh), VPS36 (ProbeSet 11739960_a_at) / Fold change (ACY-1035/veh), VPS36 (ProbeSet 11739960_a_at) / RFU SYPL1 (11715823_x_at) / Fold change /veh SYPL1 (11715823_x_at) / RFU IGFBP7 (11715501_s_at) / Fold change /veh IGFBP7 (11715501_s_at) / RFU REEP3 (11722064_at) / Fold change /veh REEP3 (11722064_at) / RFU IGLL1 (11728026_x_at) / Fold change /veh IGLL1 (11728026_x_at): dose or concentration left out as unconfirmed
Conditions: ProbeSet 11739106_a_at; LIST B

Nc1ncn([C@@H]2O[C@H](CO)[C@@H](O)[C@H]2O)c(=O)n1 [azacitidine]
Fold change vs veh, TMEM33: 0.88
